Measurements as given in patent publication US5053404A, “Novel steroid derivatives, pharmaceutical compositions containing them and process for preparing same” (Richter Gedeon Vegyeszeti Gyar R. T., priority 1989, dated 1991).

Tests used:
[1] = Comparative acute toxicity (LD50), mice; conditions: mouse, in vivo, 2-week observation
Experimental: (§1) 1) Comparative study on the acute toxicity
(§2) Animal groups consisting of 10 CFLP mice or RG Hann Wistar rats each of both sexes were used. The doses causing the death of 50% of the animals (LD50 values) within a 2-week observation period following subcutaneous (s.c.) or oral (p.o.) administration were determined.

[2] = system: croton oil-induced contact dermatitis; experiment: Croton oil-induced contact dermatitis model, ear weight; assay type: in vivo, rat; conditions: for Ear weight / Inhibition (of ear weight increase): topical on ear, 6 hours; for Inhibition (of ear weight increase): vs croton oil control; for Relative activity: relative to budesonide = 100, on 10 μg/ml line
Experimental: (§3) 2) The croton oil-induced contact dermatitis model
(§4) Infantile female rats weighing 45 to 55 g were used. Animals had previously been selected for this test, the ear weight of which increased at least by 100% under effect of a treatment with 2% croton oil.
(§5) The test compounds were dissolved in a 2% croton oil mixture in various concentrations and then applied onto the ears of the animals. The control group was treated only with the croton oil inducing inflammation. Six hours after treatment the ears of the animals were cut off and weighed. For evaluation, the diminution of the ear weight increase was expressed as "percentage of inhibition", in comparison to the control treated with croton oil only. In the 48th hour the thymi of the animals were excised and the harmful systemic side effect of the test compounds was evaluated by comparing their thymus weight to that of the control animals.

experimental asthma = experiment: Experimental asthma model (ovalbumin); assay type: in vivo, guinea-pig; conditions: 50 mg/kg i.p. 20 hours before i.v. ovalbumin provocation; for Dyspnoea (percentage occurrence): control 33; for Survival: control 66
Description: 4) The experimental asthma model
This test was used to investigate the antiasthmatic effect of the test compounds.
It is known that by ovalbumin (OA) treatment an experimental asthma can be induced on guinea-pigs which is accompanied by dyspnoea and causes the death of the animals in severe cases. This test is useful to detect an eventual antiasthmatic effect of the test compounds.
Guinea-pigs of both sexes weighing 300 to 400 g each were used. The experimental animals were sensitized by i.p. ovalbumin (10/ μg of OA+100 mg of aluminum hydroxide/animal) and after 30 days they were provoked by the intravenous (i.v.) administration of 100 mg/kg of OA. Both the test compounds and budesonide used as reference substance were given 50 mg/kg i.p. dose 20 hours before the provocation. The percentage occurrence of dyspnoea and the survival were observed.

thymus [3] = experiment: Thymus involution (systemic side effect) in croton oil-induced contact dermatitis model; assay type: in vivo, rat; conditions: 48th hour
Description: (§6) Two principal (essential) demands are set up against topically used steroid antiinflammatory drugs: a) they should be as active as possible in various animal experiments used for investigating the antiinflammatory action; and b) they should induce the lowest harmful systemic side effect. This latter effect can be well characterized by the thymus weight-decreasing action (involution). The possibly lowest toxicity (i.e. the possibly highest LD50 value) is an essential demand for any active agent (drug) used in therapy.
as §3, §4, §5

[4] = Comparative acute toxicity (LD50), rats; conditions: rat, in vivo, 2-week observation
Experimental: as §1, §2

local granuloma sac = experiment: Local granuloma sac model, exudate (antiinflammatory effect); assay type: in vivo, rat; conditions: for Exudate / Inhibition (decrease in volume of exudate): 10th day; for Inhibition (decrease in volume of exudate): vs control; for Relative activity: relative to budesonide = 100, on 2.00 μg/sac line
Experimental: (§7) 3) The local granuloma sac model
This method was used to investigate the antiexudative action of the topically administered glucocorticoids.
Groups consisting of 10 female RG Hann Wistar rats each weighing 130 to 150 g were used. […] After 5 days the content of the sac was removed by suction and once 3 doses each of the glucocorticoids to be tested or budesonide respectively, in a volume of 0.5 ml suspension in Tween 80 were administered by an injection syringe. On the 10th day following the start of the experiment the animals were sacrificed and the exudate liquid of the sac (expressed as ml) was measured. The percentage of the antiinflammatory effect was calculated based on the decrease in the volume of exudate related to that of the control.

thymus [5] = experiment: Thymus involution (systemic side effect) in local granuloma sac model; assay type: in vivo, rat; conditions: 10th day
Description: as §6, §7
Groups consisting of 10 female RG Hann Wistar rats each weighing 130 to 150 g were used. After shaving the back of the animals 25 ml of air were injected beneath the back skin and 1 ml of 2% croton oil inducing inflammation was introduced to the air sac. After 5 days the content of the sac was removed by suction and once 3 doses each of the glucocorticoids to be tested or budesonide respectively, in a volume of 0.5 ml suspension in Tween 80 were administered by an injection syringe. On the 10th day following the start of the experiment the animals were sacrificed and the exudate liquid of the sac (expressed as ml) was measured. The percentage of the antiinflammatory effect was calculated based on the decrease in the volume of exudate related to that of the control.
Then, the thymi of the animals were excised and the harmful systemic side effect of the test compounds was calculated as a percentage based on the comparison of the thymus weight of animals treated with the test compounds to that of the untreated control group.

Row | Compound | LD50 at 336 h ([1]; po, female) | LD50 at 336 h ([1]; po, male) | LD50 at 336 h ([1]; sc, female) | LD50 at 336 h ([1]; sc, male) | Ear weight ([2]; 1 μg/ml in 2% croton oil) | Inhibition (of ear weight increase) ([2]; 1 μg/ml) | Ear weight ([2]; 10 μg/ml in 2% croton oil) | Inhibition (of ear weight increase) ([2]; 10 μg/ml) | Ear weight ([2]; 100 μg/ml in 2% croton oil) | Inhibition (of ear weight increase) ([2]; 100 μg/ml) | Relative activity [2] | Dyspnoea (percentage occurrence) (experimental asthma) | Survival (experimental asthma) | Thymus involution (thymus [3]; 1 μg/ml topical on ear) | Thymus involution (thymus [3]; 10 μg/ml topical on ear) | Thymus involution (thymus [3]; 100 μg/ml topical on ear) | LD50 at 336 h ([4]; po, female) | LD50 at 336 h ([4]; po, male) | LD50 at 336 h ([4]; sc, female) | LD50 at 336 h ([4]; sc, male) | further results
1 | CCCC1O[C@@H]2C[C@H]3[C@@H]4CCC5=CC(=O)C=C[C@]5(C)[C@H]4[C@@H](O)C[C@]3(C)[C@]2(C(=O)CO)O1 (stereo partly drawn) [Budesonide, (22RS)-11β,21-dihydroxy-16α,17-butylidenedioxypregna-1,4-dien-3,20-dione, reference compound] | 1360 mg/kg | 1080 mg/kg | 109 mg/kg | 131 mg/kg | 144.71 ± 2.0 mg | 19.43% | 127.78 ± 2.0 mg | 39.53% | 117.07 ± 2.7 mg | 52.24% | 100 | 20% | 60% | 9.2% | 3.9% | 26.1% | 2110 mg/kg | 3400 mg/kg | 71.5 mg/kg | 59.4 mg/kg | Exudate (local granuloma sac; 0.22 μg/sac): 6.38 ± 0.4 mL; Inhibition (decrease in volume of exudate) (local granuloma sac; 0.22 μg/sac): 49.89%; Exudate (local granuloma sac; 2.00 μg/sac): 4.00 ± 0.3 mL; Inhibition (decrease in volume of exudate) (local granuloma sac; 2.00 μg/sac): 68.58%; Exudate (local granuloma sac; 18.00 μg/sac): 1.84 ± 0.5 mL; Inhibition (decrease in volume of exudate) (local granuloma sac; 18.00 μg/sac): 85.55%; Relative activity (local granuloma sac): 100; Thymus involution (thymus [5]; 0.22 μg/sac): 0%; Thymus involution (thymus [5]; 2.00 μg/sac): 0%; Thymus involution (thymus [5]; 18.00 μg/sac): 24.43%
2 | CCCC1O[C@@H]2C=C3[C@@H]4CCC5=CC(=O)C=C[C@]5(C)[C@H]4[C@@H](O)C[C@]3(C)[C@]2(C(=O)CO)O1 (stereo partly drawn) [Ex. No. 2, 11β,16α,17,21-tetrahydroxypregna-1,4,14-trien-3,20-dion-16,17-cyclic butyraldehyde acetal] | > 4000 mg/kg | > 4000 mg/kg | 823 mg/kg | 585 mg/kg | 144.60 ± 2.8 mg | 19.56% | 131.10 ± 2.7 mg | 35.59% | 118.20 ± 2.2 mg | 50.90% | 78 | 14% | 43% | 0% | 0% | 9.8% | > 3000 mg/kg | > 4000 mg/kg | 843 mg/kg | 1210 mg/kg | Exudate (local granuloma sac; 0.22 μg/sac): 7.47 ± 0.5 mL; Inhibition (decrease in volume of exudate) (local granuloma sac; 0.22 μg/sac): 41.32%; Exudate (local granuloma sac; 2.00 μg/sac): 5.10 ± 0.4 mL; Inhibition (decrease in volume of exudate) (local granuloma sac; 2.00 μg/sac): 59.94%; Exudate (local granuloma sac; 18.00 μg/sac): 1.36 ± 0.2 mL; Inhibition (decrease in volume of exudate) (local granuloma sac; 18.00 μg/sac): 89.32%; Relative activity (local granuloma sac): 62; Thymus involution (thymus [5]; 0.22 μg/sac): 0%; Thymus involution (thymus [5]; 2.00 μg/sac): 0%; Thymus involution (thymus [5]; 18.00 μg/sac): 0%
3 | CC(C)C1O[C@@H]2C=C3[C@@H]4CCC5=CC(=O)C=C[C@]5(C)[C@H]4[C@@H](O)C[C@]3(C)[C@]2(C(=O)CO)O1 (stereo partly drawn) [Ex. No. 6, 11β,16α,17,21-tetrahydroxypregna-1,4,14-trien-3,20-dion-16,17-cyclic isobutyraldehyde acetal] | 2790 mg/kg | 2930 mg/kg | 634 mg/kg | 333 mg/kg | 144.40 ± 3.5 mg | 19.80% | 126.90 ± 2.7 mg | 40.57% | 115.10 ± 2.6 mg | 54.57% | 118 | 0% | 100% | 0% | 1.7% | 0% | > 3000 mg/kg | > 4000 mg/kg | 164 mg/kg | 162 mg/kg | Exudate (local granuloma sac; 0.22 μg/sac): 6.52 ± 0.6 mL; Inhibition (decrease in volume of exudate) (local granuloma sac; 0.22 μg/sac): 48.79%; Exudate (local granuloma sac; 2.00 μg/sac): 5.08 ± 0.4 mL; Inhibition (decrease in volume of exudate) (local granuloma sac; 2.00 μg/sac): 60.10%; Exudate (local granuloma sac; 18.00 μg/sac): 1.69 ± 0.3 mL; Inhibition (decrease in volume of exudate) (local granuloma sac; 18.00 μg/sac): 86.73%; Relative activity (local granuloma sac): 71; Thymus involution (thymus [5]; 0.22 μg/sac): 4.98%; Thymus involution (thymus [5]; 2.00 μg/sac): 4.98%; Thymus involution (thymus [5]; 18.00 μg/sac): 6.22%
